In a melting point compilation (Tetko et al.):

| melting point [°C] | SMILES |
| --- | --- |
| 123 to 125 | Cc1nc2ccccn2c1I |
| 130 to 132 | Cc1occc1C(=O)Nc1cc(N)ccc1F |
| 183 to 185 | COc1ccccc1OCc1ccc(C(=O)O)o1 |
| 159 to 161 | Nc1cc(-c2ccccc2)ns1 |
| 221 to 223 | Cc1cc(C(=O)O)nn1-c1ccc(F)cc1F |
| 71 to 73 | CC(C)c1ccc(CCC(=O)O)cc1 |
| 115 to 117 | CSCCC(NC(=O)c1cccc(C)c1)C(=O)O (stereo not drawn) |
| 81 to 83 | O=C(O)c1cccc(S(=O)(=O)Nc2ccc(OCc3ccccc3)cc2)c1 |
| 179 to 181 | COc1ccsc1C(=O)O |
| 193 to 195 | NS(=O)(=O)c1cccc(NC(=O)Oc2ccccc2)c1 |
| 201 to 203 | CSCc1c(C(=O)O)sc2ccccc12 |
| 158 to 160 | O=C(CC(=O)Nc1ccccc1F)Nc1ccccc1F |
| 150 to 152 | CC(=O)c1ccccc1NS(=O)(=O)c1cccs1 |
| 142 to 144 | Cc1c(NC(=O)CSc2nnc(N)s2)c(=O)n(-c2ccccc2)n1C |
| 89 to 91 | O[C@@H]1CCCOc2ccccc21 |
| 63 to 65 | N#Cc1c(F)cccc1S(=O)(=O)Cl |
| 183 to 185 | Nc1nnn(Cc2ccccc2)n1 |
| 49 to 51 | O=C(CN1CCNCC1)NCc1ccccc1 |
| 114 to 116 | Cc1ccc(-n2cc(S(=O)(=O)Cl)cn2)cc1S(=O)(=O)Cl |
| 149 to 151 | CNC(=O)c1cccc(NC(=O)C(C)Cl)c1 (stereo not drawn) |
| 115 to 117 | CC(=O)c1ccc(-c2ccccc2)s1 |
| 65 to 67 | Cc1ccc(S(=O)(=O)OC2CCCC2c2ccccc2)cc1 (stereo not drawn) |
| 47 to 49 | Nc1ccc(Oc2ccc(F)cc2)nc1 |
| 194 to 196 | O=C(O)c1cccc(CS(=O)(=O)c2ccccc2)c1 |
| 319 to 321 | NC(=O)Cn1c(S)nnc1-c1cccs1 |
| 99 to 101 | Nc1ccnc(Sc2ccccn2)c1 |

| melting point [°C] | SMILES |
| --- | --- |
| 109 to 111 | COc1ccc(-c2csc(NC(=O)CCl)n2)c(OC)c1 |
| 162 to 164 | OCCNc1ccc(-c2ccccc2)nn1 |
| 108 to 110 | CC(Cl)C(=O)Nc1cccc(C#N)c1 (stereo not drawn) |
| 75 to 77 | C=CCNC(=O)c1cccnc1Cl |
| 145 to 147 | N#Cc1ccccc1OCc1ccc(C(=O)O)o1 |
| 142 to 144 | CCOC(=O)/C(C#N)=C\Nc1ccccc1F |
| 181 to 183 | Cc1ccc(C(N)=O)cc1O |
| 253 to 255 | O=C1CC(=O)Nc2cc(S(=O)(=O)Cl)ccc2N1 |
| 146 to 148 | CCCOc1ccc(C(=O)NN)cc1OC |
| 127 to 129 | COc1ccccc1-c1csc(=O)[nH]1 |
| 93 to 95 | CC(=O)N1CCCc2ccc(S(=O)(=O)Cl)cc21 |
| 80 to 82 | OCc1noc(-c2ccccc2)n1 |
| 171 to 173 | O=C(O)Cc1ccc(O)cc1Cl |
| 215 to 217 | Nc1nn2cc(-c3ccccc3)nc2c2ccccc12 |
| 108 to 110 | Sc1nc(-c2cccs2)no1 |
| 121 to 123 | O=C(CCl)N1CCN(S(=O)(=O)c2ccc(F)c(Cl)c2)CC1 |
| 153 to 155 | COc1cccc(C=C(CC(=O)O)c2nc3ccccc3s2)c1 |
| 168 to 170 | O=C(O)c1ccc(Oc2ccc(Cl)cc2Cl)cc1 |
| 83 to 85 | CC(Oc1cccnc1N)c1ccccc1 (stereo not drawn) |
| 106 to 108 | CC(C)C(=O)CNC(=O)c1ccc([N+](=O)[O-])cc1 |
| 39 to 41 | COC(=O)C(N)c1ccc(F)cc1F (stereo not drawn) |
| 159 to 161 | CC(C)c1nc(C(=O)O)nn1-c1ccccc1F |
| 195 to 197 | NNc1ccc(S(=O)(=O)NC2CC2)cn1 |
| 229 to 231 | O=C1Nc2cccc(Br)c2C1=O |
| 105 to 107 | CC1(C(=O)O)CCc2ccccc2C1 (stereo not drawn) |

The remaining lines, values behind:

| SMILES | melting point [°C] |
| --- | --- |
| NS(=O)(=O)CCCC(=O)O | 108 to 111 |
| Nc1cc2c(cc1C(=O)O)OCCO2 | 189 to 191 |
| Cn1cnc(-c2ccc(N)cc2)n1 | 138 to 140 |
| Cc1cc(C(=O)O)c(C)n1Cc1ccccc1 | 196 to 200 |
| CC1CN(c2cc(N)cc(F)c2)CC(C)O1 (stereo not drawn) | 80 to 82 |
| OC1CCOc2ccc(Br)cc21 (stereo not drawn) | 91 to 93 |
| Cc1cc(C=O)c(C)n1Cc1ccco1 | 87 to 89 |
| N#Cc1cnn(CCO)c1N | 156 to 158 |
| Cc1cc(Br)cc2c1NC(=O)C2 | 224 to 226 |
| Cc1ccc(Cl)c2ccc(=O)[nH]c12 | 254 to 256 |
| Cc1noc(C)c1CCC(=O)O | 109 to 111 |
| O=Cc1ccc(-c2ccc(Cl)c(C(F)(F)F)c2)o1 | 74 to 76 |
| O=c1[nH]cnc2c(Br)cccc12 | 317 to 319 |
| NCc1nnc2ccccn12 | 131 to 133 |
| Cc1noc2ncnc(N)c12 | 269 to 271 |
| O=C(O)C1CCCCC1C(=O)NC1CCS(=O)(=O)C1 (stereo not drawn) | 137 to 139 |
| O=C(O)CCNC(=O)C1CCCCC1 | 125 to 127 |
| CCc1cc(Cl)nc(-c2ccc([N+](=O)[O-])cc2)n1 | 103 to 105 |
| CC1=CC=CC(=C2Nc3cc(F)ccc3N2C(C)C)C1=N | 185 to 187 |
| O=C(O)CCNC(=O)C1CCC1 | 105 to 107 |
| Cc1nn(Cc2ccccc2)c(C)c1C(=O)O | 137 to 139 |
| Nc1nnc(-c2ccc(F)cc2)[nH]1 | 223 to 227 |
| Nc1nc(CN2CCNCC2)nc2ccccc12 | 213 to 215 |
| Nc1cccnc1-n1ccnc1 | 215 to 217 |
| COc1ccc(Br)c2[nH]c(C(=O)O)cc12 | 246 to 248 |
| NC(=O)OCC(F)(F)F | 42 to 44 |

| SMILES | melting point [°C] |
| --- | --- |
| Nc1ncc(Cc2cccc(F)c2)s1 | 82 to 84 |
| NN1C(=O)CNC1=O | 190 to 192 |
| COCCCC(N)=S | 48 to 50 |
| Cn1ncnc1-c1cccc(N)c1 | 93 to 95 |
| COc1cc(C(=O)O)cc(N)c1OC | 135 to 137 |
| CC(C(=O)O)c1ccc(Br)s1 (stereo not drawn) | 55 to 57 |
| CC(NC(=O)CCl)C(=O)O (stereo not drawn) | 125 to 127 |
| O=C1NC(=O)C2(CCSC2)N1 (stereo not drawn) | 243 to 245 |
| O=C(O)C1CC(=O)N(C2CCCC2)C1 (stereo not drawn) | 136 to 138 |
| Cc1oncc1C(=O)NCC(=O)O | 144 to 146 |
| CC(C)(C)OC(=O)Nc1cccc(C(N)=NO)c1 | 168 to 170 |
| O=C(O)CCc1ccc([N+](=O)[O-])cn1 | 135 to 137 |
| CC12CSCC(=O)N1C(C(=O)O)CS2 (stereo not drawn) | 202 to 204 |
| Cc1c(N)cccc1C#N | 90 to 92 |
| Nc1nc2c(F)cc(F)cc2s1 | 197 to 199 |
| Nc1nc(-c2ccc(C3CCCCC3)cc2)cs1 | 227 to 229 |
| O=C(O)c1cnc(O)cc1O | 293 to 295 |
| CC(C)c1ccc(-n2ccnc2S)cc1 | 131 to 135 |
| Nc1cc(Cl)c(Cl)nc1N | 149 to 151 |
| CCCN1Cc2ccc(N)cc2C1 | 48 to 50 |
| O=C(O)C1CC1c1cccc(Cl)c1Cl (stereo not drawn) | 124 to 126 |
| O=CN1CC(=O)NC(=O)C1 | 213 to 215 |
| CCOC(Cn1cc(C(=O)O)nn1)OCC | 138 to 140 |
| Cc1ccc(Oc2ccc3[nH]c(C)c(C)c(=O)c3c2)cc1 | 284 to 286 |
| Cc1cc(C)c(C(=O)O)c(Cl)n1 | 78 to 82 |
| O=C1COc2ccc(F)cc21 | 104 to 106 |
